Where “and” joins values, the source holds several entries; their conditions need not be identical. Equal values may be shown once.
How the values were obtained:
[1] = system: human synovial fibroblasts (line derived from OA joints); experiment: In vitro biosynthesis of hyaluronic acid by synovial fibroblasts; type: cell-based; conditions: for in vitro biosynthesis of hyaluronic acid (HA): FIG. 1, 2, 17
[2] = system: mature rabbit articular cartilage; conditions: 8 week intra-articular treatment
[3] = target: T1, human granulocyte elastase (HGE) (Homo sapiens, UniProt P08246); experiment: Inhibition of human granulocyte elastase (HGE), SAAVNA substrate; type: biochemical
T1 construct: HGE prepared according to the method of Andrews et al; from tissue
T1 sequence (P08246 30-247 limits assumed): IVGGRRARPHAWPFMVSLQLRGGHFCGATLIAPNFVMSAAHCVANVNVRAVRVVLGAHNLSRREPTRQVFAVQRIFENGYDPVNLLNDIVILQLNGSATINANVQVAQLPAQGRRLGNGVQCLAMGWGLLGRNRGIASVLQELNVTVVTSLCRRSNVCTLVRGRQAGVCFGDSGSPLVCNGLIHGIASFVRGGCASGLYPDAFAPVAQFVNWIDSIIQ
Source text: (a) HGE prepared according to the method of Andrews et al (Chem. Biological Int. 47, 157, 1983) was used to degrade
the synthetic specific substrate for this enzyme-(succinyl-dialanyl-valyl nitroanalide (SAAVNA)).
In these experiments the inhibitory activity of DH40J, PPS as SP54® and mixtures of SP54® and ZnSO4 in various proportions against HGE using the same condition as in (a), except that a different enzyme preparation was used, were investigated. […] A variety of ratios of Zn^+ to SP54® were tested for their ability to inhibit the HGE.

[4] = in vitro; Arch. Int. Pharmacodyn. Ther. 282, 196-208 (1986); cited from earlier work
[5] = system: articular cartilages implanted in rat air pouches; experiment: Rat air pouch model, loss of proteoglycans from implanted articular cartilage; type: in vivo; conditions: 10 mg/kg/day into the air pouch for seven days, peptone inflammation; FIG. 12
Procedure: This model was originally described by Sin, M. Y., et al J. Path. 141, 23 (1984) and Sedgwick A. D. et al Ann. Rheum. Dis. 43, 418 (1984) and provides a convenient and reproducable method of evaluating the effects of drugs on cartilage metabolism in vivo. This model was used to investigate the influence of SP54® and DH40J when administered into the rat air pouch at 10 mg/kg on the loss of cartilage proteoglycans (PGs) induced by an inflammatory cell invasion of the pouch.
Air pouches were created on the dorsal surface of male 200 gm Wistar rats by the initial injection of 20 ml of sterile air. Re-injection every second day maintained cavity inflation. Articular cartilage (AC) aseptically harvested from the knee joints of 10 week old New Zealand White rabbits, was implanted into formed 7 day old rat air pouches. Drugs (10 mg/kg), diluted in saline, were administered daily into the air pouch beginning the day of cartilage implantation. Saline was administered to a control group. Inflammation of the air pouch was achieved by the injection of 10 ml of sterile 3% peptone into the pouch every second day, beginning the day of cartilage implantation. […] Cells in the APF were stained with crystal violet and a total cell count determined. […] Implanted AC (8-10 mgs) was digested by papain and PG content was determined by hexuronic acid and sulphated glycosaminoglycan (GAG) analysis. […]

[6] = Table 7, different enzyme preparation, single inhibitor

Molecule	in vitro biosynthesis of hyaluronic acid (HA) [1]	4M Gu HCl,PG Extractability ([2]; individual joints)	35S-PG Specific (activity) ([2]; individual joints)	Hexuronic Acid(UA) ([2]; individual joints, hydrocortisone 50 mg, pentosan polysulphate 5 mg)	4M Gu HCl,PG Extractability Mean ± SD ([2]; n = 4 joints) [%]	35S-PG Specific (activity) Mean ± SD ([2]; n = 4 joints) [DPM/ug UA]	Hexuronic Acid(UA) Mean ± SD ([2]; n = 4 joints) [ug/mg dry wt.]	IC50 (HGE inhibition) [3, 6] [µg/mL]	restoration of HA biosynthesis suppressed by hydrocortisone ([1]; hydrocortisone at 10^6 M (so in the source), drug at 0.25 ug/ml, FIG. 19, 21)	restoration of HA biosynthesis suppressed by hydrocortisone ([1]; hydrocortisone at 10^8 M (so in the source), drug 0.1-1.0 ug/ml, FIG. 20)	prevention of the effects of hydrocortisone on synovial fibroblast biosynthesis of HA ([1]; in vitro)	improving proteoglycan incorporation into the extracellular matrix [4]	loss of proteoglycans (uronic acid) from implanted articular cartilage [5]	IC50 (HGE inhibition) ([3]; Table 6, 1 μg HGE/ml, 0.2 mM SAAVNA, pH 7.4, 37° C.) [µg/mL]	% DIFFERENCE from SP54 (IC50, HGE) ([3]; Table 7, single inhibitor) [%]
C[C@]12CCC(=O)C=C1CC[C@@H]1[C@@H]2[C@@H](O)C[C@@]2(C)[C@H]1CC[C@]2(O)C(=O)CO [Cortisone, hydrocortisone]	progressively inhibited	53.2% and 57.6% and 56.8% and 51.5%	896.8 DPM/ug UA and 866.6 DPM/ug UA and 1061.4 DPM/ug UA and 854.2 DPM/ug UA	27.4 ug/mg dry wt. and 23.2 ug/mg dry wt. and 20.0 ug/mg dry wt. and 21.8 ug/mg dry wt.	54.7 ± 2.9	919.7 ± 96.1	23.1 ± 3.1								
O=S(=O)([O-])[O-].[Zn+2] [ZnSO4, zinc sulphate]								10							
pentosan polysulphate sodium salt [SP54]	stimulates the biosynthesis of hyaluronic acid (HA)							0.381	almost, but not totally, restored to control value	fully restored synthesis to control values	could prevent the deleterious effects of hydrocortisone	active in vitro in improving proteoglycan incorporation into the extracellular matrix	equally effective in preventing the loss of proteoglycans	0.249	0

Reference: patent US5668116A, “Anti-inflammatory compounds and compositions” (Anthropharm Pty. Limited, priority 1987, dated 1997)
